Test [1] in a line: Cleavage of thiol-mediated supercoiled pGL2 basic DNA assessed as number of strand breaks per plasmid at 150 uM in presence of 10 mM desferal.
Test [2] can be described thus: Cleavage of thiol-mediated supercoiled pGL2 basic DNA assessed as nicked open circular form DNA level at 150 uM in presence 50 ug/ml superoxide dismutase.
Test [3] is described as follows: Cleavage of thiol-mediated supercoiled pGL2 basic DNA assessed as nicked open circular form DNA level at 150 uM in presence 100 ug/ml catalase.
Test [4] can be described thus: Cleavage of thiol-mediated supercoiled pGL2 basic DNA assessed as number of strand breaks per plasmid at 150 uM in presence of 100 ug/ml catalase.
Test [5] is described as follows: Cleavage of thiol-mediated supercoiled pGL2 basic DNA assessed as number of strand breaks per plasmid at 150 uM in presence of 10 mM diethylenetriaminepentaacetic acid.
Test [6] is described as follows: Cleavage of supercoiled pGL2 basic DNA assessed as number of strand breaks per plasmid at 150 uM in presence of thiol.
Test [7] in a line: Cleavage of thiol-mediated supercoiled pGL2 basic DNA assessed as nicked open circular form DNA level at 150 uM in presence 10 mM desferal.
Test [8] is described as follows: Cleavage of supercoiled pGL2 basic DNA assessed as number of strand breaks per plasmid at 150 uM.
A short description of test [9]: Cleavage of thiol-mediated supercoiled pGL2 basic DNA assessed as nicked open circular form DNA level at 150 uM in presence 1 M methanol.
Test [10] in a line: Cleavage of thiol-mediated supercoiled pGL2 basic DNA assessed as number of strand breaks per plasmid at 150 uM in presence of 1 M DMSO.
A short description of test [11]: Cleavage of thiol-mediated supercoiled pGL2 basic DNA assessed as nicked open circular form DNA level at 150 uM in presence […].
A short description of test [12]: Cleavage of thiol-mediated supercoiled pGL2 basic DNA assessed as nicked open circular form DNA level at 150 uM in presence 100 ug/ml superoxide dismutase.
Test [13] is described as follows: Cleavage of supercoiled pGL2 basic DNA assessed as nicked open circular form DNA level at 150 uM.
Test [14] in a line: Cleavage of thiol-mediated supercoiled pGL2 basic DNA assessed as nicked open circular form DNA level at 150 uM in presence 10 mM diethylenetriaminepentaacetic acid.
Test [15] can be described thus: Cleavage of thiol-mediated supercoiled pGL2 basic DNA assessed as number of strand breaks per plasmid at 150 uM in presence of 1 M methanol.
Test [16] can be described thus: Cleavage of supercoiled pGL2 basic DNA assessed as nicked open circular form DNA level at 150 uM in presence of thiol.
A short description of test [17]: Cleavage of thiol-mediated supercoiled pGL2 basic DNA assessed as nicked open circular form DNA level at 150 uM in presence 1 M ethanol.
A short description of test [18]: Cleavage of thiol-mediated supercoiled pGL2 basic DNA assessed as number of strand breaks per plasmid at 150 uM in presence of 1 M ethanol.
Another test concerns HeLa. The experiment in a line: Cytotoxicity against human HeLa S3 cells. The test is classed as functional, cell-based.
Another test relates to HepG2. The experiment in a line: Growth inhibition of human HepG2 cells. The test is classed as functional.

On to `CC1(C)SSC(=O)C1(C)O` (stereo unspecified), for which the Activity in test [1] was determined as 0.3; in test [2] it was 100%; in [3], 19.3%; in test [4] it was 0.21; in [5], 0.21; in [6], 1.32. Besides, the Activity stood at 25.9% in test [7]; 0.2 in test [8]; 27.5% in [9]; 0.17 in test [10]; 15.5% in test [11]; 100% in [12]. Further, the Activity in [13] turned out to be 18.2%; in test [14], 19%; in [15] it was 0.32; in test [16], 73.1%; in test [17] it was 19%; in test [18], 0.21.
A word on the IC50: it is the point on the concentration scale where inhibition reaches its midpoint. A low value points to greater potency. `C/C1=C\[C@@H](O)C(=O)/C=C/C=C\c2csc(n2)[C@@H](C)NC(=O)C[C@@]2(CC1)[S+]([O-])SC(=O)[C@]2(C)O` (stereo partly specified) [LEINAMYCIN] came in with an IC50 with HeLa of 27 nM.
The term GI50 denotes the concentration at which growth is held to half of that of the control. High values mean lower sensitivity of the cells, low ones greater sensitivity of the cells. In the test on HepG2, `N[C@@H](Cc1ccc(N(CCCl)CCCl)cc1)C(=O)O` [MELPHALAN] had a GI50 of 17000 nM.
For the compound `C/C1=C\[C@@H](O)C(=O)/C=C/C=C\c2csc(n2)[C@@H](C)NC(=O)C[C@@]2(CC1)SSC(=O)[C@]2(C)O`, the IC50 with HeLa amounted to 4000 nM.
As to BLEOMYCIN, in the test with HepG2, halving of growth (GI50) required 1000 nM.
With `CC1(O)C(=O)S[S+]([O-])C1(C)C` (stereo unspecified), the Activity was determined as 2.58 in test [6] and 92.5% in [16].
Taken in the same sequence, the figures for `O=c1ssc2ccccc12` were 0.4 and 33.1%.

Source of the values: ChEMBL document CHEMBL1145553, “Possible chemical mechanisms underlying the antitumor activity of S-deoxyleinamycin” (Bioorg Med Chem Lett, 2008).
